Literature values, collected in patent US20210121515A1, “COMPOSITION FOR USE IN THE PREVENTION AND/OR TREATMENT OF OSTEOARTICULAR DISEASES” (NEILOS S.R.L., priority 2018, published 2021).

Assays:
[1] = tested on: NF-κB, COX-2, superoxide dismutase; conditions: rats
[2] = tested on: carrageenan edema and pleurisy; conditions: doses of 1 mg/kg; comparable to 5 mg/kg of indomethacin
[3] = biological target: T1, mPGES-1 (Homo sapiens, UniProt O14684); conditions: intact A549 cell assays
T1 construct: with an IC50 of 10 μM in intact A549 cell assays; endogenous in cells; host or cells: A549
T1 sequence (O14684 1-152): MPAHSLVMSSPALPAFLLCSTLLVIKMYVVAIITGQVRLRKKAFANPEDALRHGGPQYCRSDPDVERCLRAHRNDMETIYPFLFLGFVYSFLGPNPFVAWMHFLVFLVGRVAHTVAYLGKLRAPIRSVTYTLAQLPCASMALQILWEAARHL

SMILES	levels of COX-2 [1]	levels of NF-κB [1]	levels of superoxide dismutase [1]	activity in acute inflammation models [2]	IC50 [3]
O=C(O)[C@H]1O[C@@H](Oc2cc3oc(-c4ccccc4)cc(=O)c3c(O)c2O)[C@H](O)[C@@H](O)[C@@H]1O [baicalin]	reduce	reduce	increasing	–	–
C[C@H]1[C@H](C)CC[C@]2(C)CC[C@]3(C)C(=CC[C@@H]4[C@@]5(C)CC[C@@H](O)[C@](C)(C(=O)O)[C@@H]5CC[C@]43C)[C@H]12 [β-boswellic acid]	–	–	–	good activity	10 µM
